In patent publication US20260248720A1, “COMPOSITIONS SUITABLE FOR THE ADMINISTRATION OF CREATINE ESTERS” (priority 2023, published 2026):

Test: Chemical stability of DCE in the particulate emulsion (HPLC/UV)
Type: physicochemical
Procedure: The chemical stability of DCE in the particulate emulsion was monitored using an HPLC/UV method at 4° C. and at room temperature.

[1] = extrapolation with the slope of the decay

SMILES: CCCCCCCCCCCCOC(=O)CN(C)C(=N)N [DCE, dodecyl creatine ester]
- Calculation of remaining content (%) after 1 month of storage at room temperature [1]: 99%
- Estimation of remaining content after 18 months of storage at 4° C. [1]: more than 95%
- Period over which DCE is stable (storage at room temperature (20-25° C.)): more than 20 days
- Period over which DCE is stable (storage in the fridge (4° C.)): more than 3 months
